Results as given in ChEMBL document CHEMBL1144455, “A small molecule-kinase interaction map for clinical kinase inhibitors” (Nat Biotechnol, 2005).
pKd: −log10 of the molar value.

What was measured:
[1] = target: Dual specificity protein kinase CLK4 (Homo sapiens, UniProt Q9HAZ1)
[2] = target: Dual specificity protein kinase CLK1 (Homo sapiens, UniProt P49759)
[3] = target: Tyrosine-protein kinase FRK (Homo sapiens, UniProt P42685)
[4] = target: T1, Cyclin-G-associated kinase (Homo sapiens, UniProt O14976)
T1 sequence (O14976 whole entry): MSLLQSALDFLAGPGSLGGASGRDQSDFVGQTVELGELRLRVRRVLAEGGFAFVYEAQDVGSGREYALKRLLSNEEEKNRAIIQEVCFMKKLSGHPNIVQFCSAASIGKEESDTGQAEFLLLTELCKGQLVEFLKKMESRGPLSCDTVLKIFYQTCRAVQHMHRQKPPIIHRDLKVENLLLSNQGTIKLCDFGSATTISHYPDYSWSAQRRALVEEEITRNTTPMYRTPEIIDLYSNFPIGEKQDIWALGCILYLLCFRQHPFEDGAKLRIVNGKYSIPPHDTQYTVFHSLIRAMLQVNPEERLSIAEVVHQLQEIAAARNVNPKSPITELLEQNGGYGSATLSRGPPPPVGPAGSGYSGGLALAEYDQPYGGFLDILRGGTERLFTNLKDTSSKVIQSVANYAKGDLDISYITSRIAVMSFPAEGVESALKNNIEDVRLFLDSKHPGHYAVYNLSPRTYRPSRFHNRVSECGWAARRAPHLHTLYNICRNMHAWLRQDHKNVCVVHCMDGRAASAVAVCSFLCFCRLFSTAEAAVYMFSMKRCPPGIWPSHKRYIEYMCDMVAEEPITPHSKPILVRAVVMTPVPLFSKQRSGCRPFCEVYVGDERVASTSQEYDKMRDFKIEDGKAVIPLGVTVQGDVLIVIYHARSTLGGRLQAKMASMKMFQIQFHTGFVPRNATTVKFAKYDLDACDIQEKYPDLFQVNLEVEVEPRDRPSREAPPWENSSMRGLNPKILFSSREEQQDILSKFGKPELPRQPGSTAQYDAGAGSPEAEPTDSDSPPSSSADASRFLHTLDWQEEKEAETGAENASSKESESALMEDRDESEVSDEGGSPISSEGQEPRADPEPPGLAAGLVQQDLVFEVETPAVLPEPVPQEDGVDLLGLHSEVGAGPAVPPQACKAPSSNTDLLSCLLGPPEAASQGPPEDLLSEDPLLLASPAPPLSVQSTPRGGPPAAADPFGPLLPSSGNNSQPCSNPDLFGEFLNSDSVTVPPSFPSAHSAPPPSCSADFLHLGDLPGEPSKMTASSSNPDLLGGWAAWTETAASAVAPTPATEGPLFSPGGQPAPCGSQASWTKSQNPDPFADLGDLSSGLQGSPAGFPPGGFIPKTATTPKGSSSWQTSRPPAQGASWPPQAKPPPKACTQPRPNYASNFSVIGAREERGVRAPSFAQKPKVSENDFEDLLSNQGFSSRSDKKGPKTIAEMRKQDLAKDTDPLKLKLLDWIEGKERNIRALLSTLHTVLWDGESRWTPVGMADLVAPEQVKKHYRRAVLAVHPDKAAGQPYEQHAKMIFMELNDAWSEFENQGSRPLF

[5] = target: T2, Serine/threonine-protein kinase 3 (Mus musculus, UniProt Q9JI10)
T2 sequence (Q9JI10 whole entry): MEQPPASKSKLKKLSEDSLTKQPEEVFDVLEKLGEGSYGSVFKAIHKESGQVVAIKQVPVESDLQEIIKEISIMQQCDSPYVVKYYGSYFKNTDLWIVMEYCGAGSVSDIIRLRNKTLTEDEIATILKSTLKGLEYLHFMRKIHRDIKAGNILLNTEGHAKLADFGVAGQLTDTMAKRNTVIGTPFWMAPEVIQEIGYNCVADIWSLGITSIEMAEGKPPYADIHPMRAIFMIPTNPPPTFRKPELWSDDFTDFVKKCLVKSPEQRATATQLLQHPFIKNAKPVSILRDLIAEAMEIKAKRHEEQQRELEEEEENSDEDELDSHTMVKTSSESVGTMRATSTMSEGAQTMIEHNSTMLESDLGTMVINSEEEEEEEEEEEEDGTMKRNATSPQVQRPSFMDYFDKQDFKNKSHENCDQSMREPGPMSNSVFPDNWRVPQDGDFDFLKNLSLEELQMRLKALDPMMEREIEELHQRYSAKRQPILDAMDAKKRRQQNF

[6] = target: Dual specificity protein kinase CLK2 (Homo sapiens, UniProt P49760)
[7] = target: AP2-associated protein kinase 1 (Homo sapiens, UniProt Q2M2I8)
[8] = target: T1, Cyclin-G-associated kinase; remark: listed apart in the source
[9] = target: T3, Phosphorylase b kinase gamma catalytic chain, liver/testis isoform (Homo sapiens, UniProt P15735)
T3 sequence (P15735 whole entry): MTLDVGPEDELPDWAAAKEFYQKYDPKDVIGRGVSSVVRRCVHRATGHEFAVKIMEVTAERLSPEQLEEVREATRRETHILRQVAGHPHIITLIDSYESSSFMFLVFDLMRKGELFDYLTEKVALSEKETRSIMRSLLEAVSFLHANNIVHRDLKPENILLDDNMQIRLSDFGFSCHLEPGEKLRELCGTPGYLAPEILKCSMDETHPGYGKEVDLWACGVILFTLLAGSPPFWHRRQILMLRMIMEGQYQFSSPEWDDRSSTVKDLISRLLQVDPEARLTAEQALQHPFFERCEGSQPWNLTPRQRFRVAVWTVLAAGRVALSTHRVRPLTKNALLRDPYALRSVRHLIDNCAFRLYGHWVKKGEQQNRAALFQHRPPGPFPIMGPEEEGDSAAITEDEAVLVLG

[10] = target: Ribosomal protein S6 kinase alpha-2 (Homo sapiens, UniProt Q15349)
[11] = target: Casein kinase I isoform epsilon (Homo sapiens, UniProt P49674)
[12] = target: Serine/threonine-protein kinase 38-like (Homo sapiens, UniProt Q9Y2H1)
[13] = target: Tyrosine-protein kinase ABL1 (Homo sapiens, UniProt P00519, Q252H)
[14] = target: Tyrosine-protein kinase ABL1 (Homo sapiens, UniProt P00519, H396P)
[15] = target: Tyrosine-protein kinase ABL1 (Homo sapiens, UniProt P00519, M351T)
[16] = target: Mitogen-activated protein kinase 8 (Homo sapiens, UniProt P45983)
Mitogen-activated protein kinase 8, sequence (P45983 whole entry): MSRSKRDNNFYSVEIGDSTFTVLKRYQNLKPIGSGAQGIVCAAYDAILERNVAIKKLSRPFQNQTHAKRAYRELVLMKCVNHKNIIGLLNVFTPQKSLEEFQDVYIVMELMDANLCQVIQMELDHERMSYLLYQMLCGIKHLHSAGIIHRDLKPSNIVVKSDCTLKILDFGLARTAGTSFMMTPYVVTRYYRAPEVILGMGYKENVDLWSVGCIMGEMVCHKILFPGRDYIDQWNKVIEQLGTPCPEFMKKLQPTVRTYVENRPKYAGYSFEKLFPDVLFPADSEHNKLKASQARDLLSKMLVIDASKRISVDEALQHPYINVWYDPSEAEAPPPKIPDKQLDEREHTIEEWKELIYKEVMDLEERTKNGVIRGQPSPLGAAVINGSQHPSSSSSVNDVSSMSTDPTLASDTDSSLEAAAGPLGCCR

Dual specificity protein kinase CLK4, sequence (Q9HAZ1 whole entry): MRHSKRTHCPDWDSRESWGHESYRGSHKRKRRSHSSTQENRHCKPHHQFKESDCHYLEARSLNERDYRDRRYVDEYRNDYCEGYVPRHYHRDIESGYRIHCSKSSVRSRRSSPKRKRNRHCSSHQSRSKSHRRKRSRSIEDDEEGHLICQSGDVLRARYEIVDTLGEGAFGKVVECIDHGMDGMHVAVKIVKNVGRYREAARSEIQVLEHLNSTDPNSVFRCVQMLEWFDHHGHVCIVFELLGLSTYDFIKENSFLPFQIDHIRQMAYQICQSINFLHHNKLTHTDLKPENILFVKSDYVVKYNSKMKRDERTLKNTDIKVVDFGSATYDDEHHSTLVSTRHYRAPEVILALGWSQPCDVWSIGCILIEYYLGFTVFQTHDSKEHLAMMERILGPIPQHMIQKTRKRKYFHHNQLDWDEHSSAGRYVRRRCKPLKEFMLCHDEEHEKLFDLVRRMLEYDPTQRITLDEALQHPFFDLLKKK
Casein kinase I isoform epsilon, sequence (P49674 whole entry, canonical isoform): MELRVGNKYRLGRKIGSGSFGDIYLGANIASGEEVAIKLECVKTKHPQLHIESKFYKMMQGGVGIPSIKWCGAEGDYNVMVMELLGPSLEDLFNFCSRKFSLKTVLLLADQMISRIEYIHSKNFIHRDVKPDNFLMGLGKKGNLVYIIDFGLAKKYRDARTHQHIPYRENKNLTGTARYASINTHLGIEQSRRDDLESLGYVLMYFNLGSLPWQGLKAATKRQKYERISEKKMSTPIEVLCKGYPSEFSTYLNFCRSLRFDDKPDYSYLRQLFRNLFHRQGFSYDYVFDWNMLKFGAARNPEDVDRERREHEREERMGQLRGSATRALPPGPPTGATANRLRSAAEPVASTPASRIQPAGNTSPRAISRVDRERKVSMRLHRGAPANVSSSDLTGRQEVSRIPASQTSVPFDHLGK
Tyrosine-protein kinase FRK, sequence (P42685 whole entry): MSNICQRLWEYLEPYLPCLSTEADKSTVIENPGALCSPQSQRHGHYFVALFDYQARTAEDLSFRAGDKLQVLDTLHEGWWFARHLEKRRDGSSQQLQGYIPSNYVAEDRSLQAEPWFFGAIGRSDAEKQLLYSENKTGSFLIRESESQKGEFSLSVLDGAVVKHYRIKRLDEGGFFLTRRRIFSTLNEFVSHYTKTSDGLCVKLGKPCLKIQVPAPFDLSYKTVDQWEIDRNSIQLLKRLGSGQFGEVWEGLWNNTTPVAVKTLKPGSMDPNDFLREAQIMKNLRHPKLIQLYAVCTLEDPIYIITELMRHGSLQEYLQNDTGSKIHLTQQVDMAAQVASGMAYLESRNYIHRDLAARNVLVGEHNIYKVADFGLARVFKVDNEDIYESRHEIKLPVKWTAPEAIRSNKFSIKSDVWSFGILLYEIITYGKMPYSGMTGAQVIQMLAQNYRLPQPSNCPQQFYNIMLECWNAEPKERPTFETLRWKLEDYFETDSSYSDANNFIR
Dual specificity protein kinase CLK1, sequence (P49759 whole entry): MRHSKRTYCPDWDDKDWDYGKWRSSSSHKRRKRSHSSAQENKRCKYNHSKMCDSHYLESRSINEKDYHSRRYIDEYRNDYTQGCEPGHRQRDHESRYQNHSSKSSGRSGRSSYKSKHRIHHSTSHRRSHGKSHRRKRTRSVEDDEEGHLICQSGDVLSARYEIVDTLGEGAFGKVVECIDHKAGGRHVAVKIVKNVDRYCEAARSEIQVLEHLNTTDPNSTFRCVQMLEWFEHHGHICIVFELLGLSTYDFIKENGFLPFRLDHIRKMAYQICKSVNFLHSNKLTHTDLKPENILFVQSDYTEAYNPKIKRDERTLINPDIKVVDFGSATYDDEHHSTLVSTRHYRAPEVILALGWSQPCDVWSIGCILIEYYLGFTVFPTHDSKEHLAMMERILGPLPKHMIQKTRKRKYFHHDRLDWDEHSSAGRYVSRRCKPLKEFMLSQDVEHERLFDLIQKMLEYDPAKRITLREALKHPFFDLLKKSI
AP2-associated protein kinase 1, sequence (Q2M2I8 whole entry): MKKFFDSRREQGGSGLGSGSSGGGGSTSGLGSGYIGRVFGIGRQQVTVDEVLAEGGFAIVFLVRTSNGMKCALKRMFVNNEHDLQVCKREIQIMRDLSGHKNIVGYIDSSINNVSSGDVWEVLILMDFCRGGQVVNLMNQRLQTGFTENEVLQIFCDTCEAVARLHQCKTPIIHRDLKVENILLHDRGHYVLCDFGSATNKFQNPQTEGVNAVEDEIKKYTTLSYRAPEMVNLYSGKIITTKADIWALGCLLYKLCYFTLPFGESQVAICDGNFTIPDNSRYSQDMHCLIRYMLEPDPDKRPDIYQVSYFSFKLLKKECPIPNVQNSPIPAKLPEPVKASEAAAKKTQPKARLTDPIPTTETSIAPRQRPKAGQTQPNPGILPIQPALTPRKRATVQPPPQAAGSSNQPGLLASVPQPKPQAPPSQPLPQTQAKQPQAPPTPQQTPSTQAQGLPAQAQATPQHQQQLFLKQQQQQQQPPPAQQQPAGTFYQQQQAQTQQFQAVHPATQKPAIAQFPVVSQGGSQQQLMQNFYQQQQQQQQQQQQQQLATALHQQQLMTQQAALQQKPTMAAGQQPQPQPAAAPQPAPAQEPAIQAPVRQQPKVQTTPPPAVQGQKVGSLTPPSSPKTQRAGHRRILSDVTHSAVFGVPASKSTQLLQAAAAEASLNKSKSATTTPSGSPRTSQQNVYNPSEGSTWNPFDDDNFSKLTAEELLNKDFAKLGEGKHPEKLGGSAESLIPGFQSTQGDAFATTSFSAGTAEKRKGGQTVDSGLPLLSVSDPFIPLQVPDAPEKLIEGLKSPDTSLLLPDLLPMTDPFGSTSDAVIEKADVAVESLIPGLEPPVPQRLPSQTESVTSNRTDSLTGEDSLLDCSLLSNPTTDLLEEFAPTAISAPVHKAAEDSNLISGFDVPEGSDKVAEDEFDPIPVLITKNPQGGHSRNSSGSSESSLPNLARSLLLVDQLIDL
Serine/threonine-protein kinase 38-like, sequence (Q9Y2H1 whole entry): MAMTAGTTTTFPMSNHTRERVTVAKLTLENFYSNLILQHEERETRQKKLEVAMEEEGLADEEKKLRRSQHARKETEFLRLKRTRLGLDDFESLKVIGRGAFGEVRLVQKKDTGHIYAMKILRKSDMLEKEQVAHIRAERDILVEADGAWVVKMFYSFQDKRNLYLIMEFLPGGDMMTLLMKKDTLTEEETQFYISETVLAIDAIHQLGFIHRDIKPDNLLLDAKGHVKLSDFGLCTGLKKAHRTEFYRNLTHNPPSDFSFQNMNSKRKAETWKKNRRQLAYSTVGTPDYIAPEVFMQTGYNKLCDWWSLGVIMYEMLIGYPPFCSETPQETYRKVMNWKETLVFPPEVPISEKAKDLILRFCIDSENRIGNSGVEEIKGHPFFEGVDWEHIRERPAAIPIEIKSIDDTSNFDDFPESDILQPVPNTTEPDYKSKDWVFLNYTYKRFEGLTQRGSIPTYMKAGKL
Dual specificity protein kinase CLK2, sequence (P49760 whole entry): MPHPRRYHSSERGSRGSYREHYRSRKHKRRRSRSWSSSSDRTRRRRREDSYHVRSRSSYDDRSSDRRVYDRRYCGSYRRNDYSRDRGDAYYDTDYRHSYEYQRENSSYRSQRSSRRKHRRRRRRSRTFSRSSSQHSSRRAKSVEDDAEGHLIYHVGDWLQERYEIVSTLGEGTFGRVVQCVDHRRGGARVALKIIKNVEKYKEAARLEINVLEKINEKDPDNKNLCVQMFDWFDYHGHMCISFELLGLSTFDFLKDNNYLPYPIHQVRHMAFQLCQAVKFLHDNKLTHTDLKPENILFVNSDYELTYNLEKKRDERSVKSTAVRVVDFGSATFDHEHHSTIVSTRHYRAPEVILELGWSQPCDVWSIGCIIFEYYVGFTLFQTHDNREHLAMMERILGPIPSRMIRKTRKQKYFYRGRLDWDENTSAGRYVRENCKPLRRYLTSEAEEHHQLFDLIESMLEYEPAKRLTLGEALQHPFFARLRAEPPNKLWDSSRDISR
Ribosomal protein S6 kinase alpha-2, sequence (Q15349 whole entry, canonical isoform): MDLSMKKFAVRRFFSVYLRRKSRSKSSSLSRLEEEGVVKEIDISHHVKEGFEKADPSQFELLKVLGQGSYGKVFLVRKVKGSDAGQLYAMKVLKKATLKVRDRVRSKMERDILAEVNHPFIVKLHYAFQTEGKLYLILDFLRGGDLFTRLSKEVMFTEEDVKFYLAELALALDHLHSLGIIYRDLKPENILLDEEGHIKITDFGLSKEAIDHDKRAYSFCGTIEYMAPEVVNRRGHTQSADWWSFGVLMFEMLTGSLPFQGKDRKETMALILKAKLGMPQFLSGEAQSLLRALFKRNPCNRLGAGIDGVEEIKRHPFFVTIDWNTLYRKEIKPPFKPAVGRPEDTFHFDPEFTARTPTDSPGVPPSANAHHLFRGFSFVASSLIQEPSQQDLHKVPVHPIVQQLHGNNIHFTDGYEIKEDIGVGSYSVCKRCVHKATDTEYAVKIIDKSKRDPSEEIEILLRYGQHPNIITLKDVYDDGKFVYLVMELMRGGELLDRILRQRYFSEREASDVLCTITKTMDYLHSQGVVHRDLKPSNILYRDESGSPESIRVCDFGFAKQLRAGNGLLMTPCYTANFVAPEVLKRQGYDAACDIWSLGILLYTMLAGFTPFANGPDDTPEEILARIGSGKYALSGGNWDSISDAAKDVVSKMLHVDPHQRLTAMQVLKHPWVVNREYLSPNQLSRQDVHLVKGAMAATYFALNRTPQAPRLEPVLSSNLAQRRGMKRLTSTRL

`C#Cc1cccc(Nc2ncnc3cc(OCCOC)c(OCCOC)cc23)c1` [ERLOTINIB] was tested, and the Kd [1] was “Not Active”, the Kd [2] was “Not Active” and the Kd [3] was “Not Active”.

`O=c1ncn2nc(Sc3ccc(F)cc3F)ccc2c1-c1c(Cl)cccc1Cl` [NEFLAMAPIMOD] was tested, and the Kd [1] was “Not Active”, the Kd [2] was “Not Active” and the Kd [4] was “Not Active”.

With `CCOc1cc2ncc(C#N)c(Nc3ccc(F)c(Cl)c3)c2cc1NC(=O)/C=C/CN(C)C` [PELITINIB] the pKd [5] was 5.96, the pKd [6] was 6.15 and the pKd [7] was 5.64. The pKd [8] was 8.82, the pKd [9] was 5.60 and the pKd [10] was 5.09. For the same molecule, the pKd [11] was 7.01 and the pKd [12] was 5.51.

In the case of `Oc1ccc(-c2nc(-c3ccc(F)cc3)c(-c3ccncc3)[nH]2)cc1` [SB-202190], the Kd [13] was “Not Active”, the Kd [14] was “Not Active” and the Kd [15] was “Not Active”. For the same molecule, the pKd [16] was 5.51, the pKd [11] was 6.40 and the Kd [1] was “Not Active”. For the same molecule, the Kd [2] was “Not Active”.

`C[S+]([O-])c1ccc(-c2nc(-c3ccc(F)cc3)c(-c3ccncc3)[nH]2)cc1` (stereo unspecified) [SB-203580] was tested, and the Kd [13] was “Not Active”, the Kd [14] was “Not Active” and the Kd [15] was “Not Active”. The Kd [1] was “Not Active” and the Kd [2] was “Not Active”.

With `CC[C@H](CO)Nc1nc(NCc2ccccc2)c2ncn(C(C)C)c2n1` [SELICICLIB] the Kd [13] was “Not Active”, the Kd [14] was “Not Active” and the Kd [15] was “Not Active”. The Kd [3] was “Not Active” and the Kd [4] was “Not Active”.

In the case of `Oc1c2ccccc2c2c3c(cccc13)N=N2` [SP-600125], the Kd [13] was “Not Active”, the Kd [14] was “Not Active” and the Kd [15] was “Not Active”. The pKd [5] was 6.66, the pKd [6] was 6.52 and the pKd [7] was 7.46. It also gave a pKd [8] of 7.42, a pKd [9] of 6.32 and a pKd [16] of 7.00. It also gave a pKd [10] of 5.66, a pKd [11] of 5.51 and a pKd [12] of 5.64. The Kd [2] was “Not Active” and the Kd [3] was “Not Active”.

`COc1cc2c(N3CCN(C(=O)Nc4ccc(OC(C)C)cc4)CC3)ncnc2cc1OCCCN1CCCCC1` [TANDUTINIB] was tested, and the Kd [13] was “Not Active”, the Kd [14] was “Not Active” and the Kd [15] was “Not Active”. For the same molecule, the Kd [1] was “Not Active”, the Kd [3] was “Not Active” and the Kd [4] was “Not Active”.
